These results are taken from patent publication US20240158393A1, “PYRIDONE COMPOUNDS AND METHODS OF USE” (Exelixis, Inc., priority 2021, published 2024).

In general, IC50 refers to the concentration at which inhibition is half-maximal.

Counter-ions that a name gives are not always drawn.

The target in this test is T1, Human Met (Homo sapiens, UniProt P08581).
T1 construct: Human MET (residues 956-1390)
The test can be described thus: Human Met kinase assay (33P radiometric / HTRF KinEase). It is filed as biochemical. The settings on record: protocols of Examples D-1 and/or D-2; read-out: c-Met IC50. The essentials: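 Two formats gave IC50s by curve fitting. HTRF KinEase used MET residues 956-1390 with 1 μM biotin-peptide and 3.0 μM ATP (Km) for 40 min at room temperature, ten doses in 3% DMSO, 665/620 nm read. The 33P transfer assay used mutant Met R974-S1390 A1209G/V1290L (3.4 nM), 10 μM ATP, 250 μM peptide, pH 7.0, 40 min, nine doses from 1 μM.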

T1 sequence (P08581 974-1390 limits assumed): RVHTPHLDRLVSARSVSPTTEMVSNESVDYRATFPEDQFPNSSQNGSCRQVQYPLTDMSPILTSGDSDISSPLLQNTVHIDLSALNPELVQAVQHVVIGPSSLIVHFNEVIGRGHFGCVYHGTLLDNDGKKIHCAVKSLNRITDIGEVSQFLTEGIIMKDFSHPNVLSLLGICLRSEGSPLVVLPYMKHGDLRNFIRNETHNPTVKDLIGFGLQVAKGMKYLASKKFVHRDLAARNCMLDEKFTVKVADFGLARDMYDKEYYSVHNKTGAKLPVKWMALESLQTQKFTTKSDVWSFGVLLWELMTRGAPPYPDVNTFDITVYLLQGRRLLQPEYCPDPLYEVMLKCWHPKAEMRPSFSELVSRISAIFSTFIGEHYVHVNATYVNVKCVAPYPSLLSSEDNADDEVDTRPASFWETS

Consider `C=C(C)c1c(C)n(C)c(C)c(C(=O)Nc2ccc(Oc3ccnc4cc(OC)c(OC)nc34)c(F)c2)c1=O` [Compound 52, N-[4-[(6,7-Dimethoxy-1,5-naphthyridin-4-yl)oxy]-3-fluorophenyl]-1,2,6-trimethyl-4-oxo-5-prop-1-en-2-ylpyridine-3-carboxamide], for which the half-inhibitory concentration (IC50) was more than 300 nM. Consider `COc1cc2nccc(Oc3ccc(NC(=O)c4c(C)n(C)c(C)c(C5=CCOCC5)c4=O)cc3F)c2nc1OC` [Compound 53, 5-(3,6-Dihydro-2H-pyran-4-yl)-N-[4-[(6,7-dimethoxy-1,5-naphthyridin-4-yl)oxy]-3-fluorophenyl]-1,2,6-trimethyl-4-oxopyridine-3-carboxamide], for which the half-maximal inhibitory concentration (IC50) was not above 100 nM. Then `COCCOc1cc2nccc(Oc3ccc(NC(=O)c4c(C)n(C)c(C)c(/C=C/C5CCCC5)c4=O)cc3F)c2nc1OC` [Compound 54, 5-[(E)-2-Cyclopentylethenyl]-N-[3-fluoro-4-[[6-methoxy-7-(2-methoxyethoxy)-1,5-naphthyridin-4-yl]oxy]phenyl]-1,2,6-trimethyl-4-oxopyridine-3-carboxamide], with 100 to 300 nM; and `C=C(C)c1c(C)n(C)c(C)c(C(=O)Nc2ccc(Oc3ccnc4cc(OC)c(OC)nc34)cc2)c1=O` [Compound 55, N-[4-[(6,7-Dimethoxy-1,5-naphthyridin-4-yl)oxy]phenyl]-1,2,6-trimethyl-4-oxo-5-prop-1-en-2-ylpyridine-3-carboxamide], with more than 300 nM. Then `COCCOc1cc2nccc(Oc3ccc(NC(=O)c4c(C)n(C)c(C)c(C5=CCCCC5)c4=O)cc3F)c2nc1OC` [Compound 58, 5-(Cyclohexen-1-yl)-N-[3-fluoro-4-[[6-methoxy-7-(2-methoxyethoxy)-1,5-naphthyridin-4-yl]oxy]phenyl]-1,2,6-trimethyl-4-oxopyridine-3-carboxamide], with not above 100 nM; and `COCCOc1cnc2c(Oc3ccc(NC(=O)c4c(C)n(C)c(C)c(C5=CCCC5)c4=O)cc3F)ccnc2c1` [Compound 65, 5-(Cyclopenten-1-yl)-N-[3-fluoro-4-[[7-(2-methoxyethoxy)-1,5-naphthyridin-4-yl]oxy]phenyl]-1,2,6-trimethyl-4-oxopyridine-3-carboxamide], with not above 100 nM; and `COCCOc1cnc2c(Oc3ccc(NC(=O)c4c(C)n(C)c(C)c(C5=CCCCC5)c4=O)cc3F)ccnc2c1` [Compound 66, 5-(Cyclohexen-1-yl)-N-[3-fluoro-4-[[7-(2-methoxyethoxy)-1,5-naphthyridin-4-yl]oxy]phenyl]-1,2,6-trimethyl-4-oxopyridine-3-carboxamide], with not above 100 nM. Then `COc1cc2nccc(Oc3ccc(NC(=O)c4c5n(c(C)c(C6=CCOCC6)c4=O)CCOC5)cc3)c2nc1OC` [Compound 73, 7-(3,6-Dihydro-2H-pyran-4-yl)-N-[4-[(6,7-dimethoxy-1,5-naphthyridin-4-yl)oxy]phenyl]-6-methyl-8-oxo-3,4-dihydro-1H-pyrido[2,1-c][1,4]oxazine-9-carboxamide], with not above 100 nM; and `COc1nc2c(Oc3ccc(NC(=O)c4c(C)n(C)c(C)c(C5=CCCC5)c4=O)cc3F)ccnc2cc1OCCC1CCC1` [Compound 74, N-[4-[[7-(2-Cyclobutylethoxy)-6-methoxy-1,5-naphthyridin-4-yl]oxy]-3-fluorophenyl]-5-(cyclopenten-1-yl)-1,2,6-trimethyl-4-oxopyridine-3-carboxamide], with not above 100 nM. As to `COc1cc2nccc(Oc3ccc(NC(=O)c4cnc(C)c(C5=CCCC5)c4O)cc3F)c2nc1OC` [Compound G1-2, 5-(Cyclopenten-1-yl)-N-[4-[(6,7-dimethoxy-1,5-naphthyridin-4-yl)oxy]-3-fluorophenyl]-4-hydroxy-6-methylpyridine-3-carboxamide hydrochloride], the IC50 was not above 100 nM. With `COc1cc2nccc(Oc3ccc(NC(=O)c4cnc(C)c(C5=CCCCC5)c4O)cc3F)c2nc1OC` [Compound G1-3, 5-(Cyclohexen-1-yl)-N-[4-[(6,7-dimethoxy-1,5-naphthyridin-4-yl)oxy]-3-fluorophenyl]-4-hydroxy-6-methylpyridine-3-carboxamide], the IC50 was not above 100 nM. For `COc1cc2nccc(Oc3ccc(NC(=O)c4c5n(cc(C6=CCCCC6)c4=O)CCOC5)cc3F)c2nc1OC` [Compound G1-4, 7-(Cyclohexen-1-yl)-N-[4-[(6,7-dimethoxy-1,5-naphthyridin-4-yl)oxy]-3-fluorophenyl]-8-oxo-3,4-dihydro-1H-pyrido[2,1-c][1,4]oxazine-9-carboxamide], the half-inhibitory concentration (IC50) is not above 100 nM.
